Values joined by “and” are separate entries in the source; they are usually repeats but may differ in a detail not shown here. Equal entries are not always repeated. “Also recorded” adds a separate entry of the source.
Experiments:
[1] = test system: overweight non-diabetic adults; assay: Insulin, C-peptide and HOMA-IR in double-masked placebo controlled trial; assay type: in vivo, human
From the text: (§1) The ability of high doses of systemic salsalate to reduce systemic inflammation and improve metabolic parameters was investigated in a double-masked placebo controlled trial of 20 overweight non-diabetic adults (age: 24 yrs±1, gender 17F/3M, BMI 38 kg/m^2±2), evaluated at baseline and after one month of dally administration of oral salsalate 4 g or placebo.
(§2) Participants were instructed to consume a standard high-carbohydrate diet (250-300 grams/day) and abstain from strenuous exercise for three days prior to undergoing, baseline and final evaluations. Subjects were additionally instructed not to alter dietary or exercise habits daring the study Blood pressure was measured twice with the patient supine for 10 minutes. Fasting lipids and cytokines were measured, and oral glucose tolerance tests (OGTT) were performed with glucose, insulin, C-peptide and free fatty acid levels measured prior to and 30, 60, 90 and 120 minutes after 75-gram glucose load. All subjects were non-diabetic based on current American Diabetes Association guidelines (Diagnosis and Classification of Diabetes Mellitus. Diabetes Care 28:S37-S42 (2005)). AUC data were calculated by triangulation. Insulin resistance was determined using homeostasis model assessment (HOMA-IR) for insulin and C-peptide as described using the modified formula: HOMA-IRC-peptide=(fasting C-peptide*fasting glucose)/22.5 See, e.g., Matthews et al, Diabetologia 28:41.2-419 (1985); Wallace et al., Diabetes Care 27; 1487-4495 (2004).
(§3) Compliance was evaluated with blood salicylate levels.
(§4) Glucose was measured by glucose oxidation, cholesterol and HDL by cholesterol esterase assay, triglycerides via hydrolysis to glycerol and FFA (Beckman Synchron CX3delta and CX9, Beckman Coulter, Brea, Calif.), and glycohemoglobin by HPLC (TOSHO 2.2™, Tosoh Bioscience, San Francisco, Calif.). Immunoassays were performed in duplicate on serum specimens by commercial assay including RIA for insulin and C-peptide (Diagnostic Systems Laboratories, Webster, Tex.), and adiponectin (Linco research, St. Charles, Mo., USA); ELISA for free fatty acids (WAKO chemicals, Richmond, Va., USA), and IL-6 and VCAM-1 (R& D Systems, Minneapolis, Minn., USA). CRP was analysed by immunoturbidometry (WAKO chemicals, Richmond, Va., USA), Salicylate levels were assessed commercially using a colorimetric assay (Quest Laboratories, Cambridge, Mass., USA). Glycated albumin was evaluated with the use of a Hitachi 911 lipid and protein analyzer and kits from AsahiKasei (Tokyo, JP). Glycated albumin was calculated by determining (1) the colorimetric measurement of total, albumin; (2) partial enzymatic digestion of albumin at glycated sites; (3) re-assessment of albumin; (4) % glycated albumin=1-3.
(§5) The primary endpoint was change from, baseline in glycemic measures using between group comparisons. Secondary outcomes were also assessed as change from baseline within group. Data are presented as mean±standard error unless otherwise noted. Unpaired (salsalate vs. placebo) and paired (pre vs. post) Student t-tests were performed. Treatment effects were determined by calculating differences between baseline sad end of treatment values divided by the baseline value to determine a percent change for each participant. Repeated measures of ANOVA and area under curve analyses were performed to compare response to oral glucose load before and after treatment. Only subjects completing the trial were included in data analysis. Results were considered significant with two-tailed p-values <0.05.

[2] = test system: overweight non-diabetic adults; assay: Glycemia (fasting glucose, OGTT, glycated albumin) in double-masked placebo controlled trial; assay type: in vivo, human
From the text: as §1
Subjects were under 30 years old, and obese as defined by a body mass Index (BMI) of ≧ 30 kg/m^2 Participants were excluded for recent blood donation, change in weight of more than 5% in the preceding six months or use of medication known to alter weight, acute febrile illness, biochemical evidence of renal or hepatic dysfunction, aspirin allergy, history of gastritis or gastrointestinal bleeding, current medications known to altar glucose metabolism, or diabetes mellitus based on screening evaluation. Female participants were excluded for pregnancy, lactation, or lack of current use of a hormonal or barrier contraceptive method.
as §2, §3, §4
as §5, with “Repeated measures of ANOVA and area under curve analyses were performed to compare response to oral glucose load before and after treatment. Only subjects completing the trial were included in data analysis. Results were considered significant with two-tailed p-values <0.05.” left out

[3] = test system: overweight non-diabetic adults; assay: Safety and tolerability in the trial
[4] = test system: cyclooxygenase enzymes; conditions: cited from earlier work
[5] = test system: overweight non-diabetic adults; assay: Cytokines, adipokines and inflammatory markers pre- and post-one month of therapy; assay type: in vivo, human
Method: as §1, §4, §5
To evaluate the proposed anti-inflammatory mechanism of action for improvement in glycemia, cytokines and adipokines were assessed pre- and post-one month of therapy in the same population described in Example 1.

[6] = test system: IKKβ/NF-κB; conditions: cited from earlier work
[7] = over the one-month period, p>0.1
[8] = following one month of salsalate therapy

## O=C(Oc1ccccc1C(=O)O)c1ccccc1O [salsalate, 2-hydroxybenzoE acid, 2-carboxyphenyl ester]
[1]; after one month of salsalate, baseline 1.6±0.2, p=0.02
  fasting C-peptide levels after treatment: 1.1 ± 0.2 nmol/L
[1]; one month of salsalate, placebo increase of 4±7%, p=0.02
  reduction in C-peptide AUC post glucose challenge: 23±4%
[1]; one month of salsalate, placebo increase of 5±6%, p<0.01
  reduction in fasting C-peptide, change from baseline: 30±7%
[1]; one month of salsalate, placebo increased 9±5%, p=0.003
  HOMA IRc peptide lowered by: 35±8%
[1]; post one month of salsalate, pre 4.6±0.9, p=0.9, not significantly changed
  HOMA-IR using insulin, post treatment: 4.2±0.6
[1]; pre vs post one month of salsalate
  fasting insulin values: unchanged
[1]; pre- and post-salsalate, 75 g oral glucose
  insulin levels following glucose challenge: remained unchanged
[1]; salsalate compared to placebo
  insulin sensitivity calculated by HOMA IRc-peptide (FIG. 2C): improvement
[1]; salsalate vs placebo
  C peptide response to Oral Glucose Tolerance Test calculated by AUC (FIG. 2C): significant between group difference
[2]
  fasting glucose compared to placebo (FIG. 1A): reduced
  glycated albumin compared to placebo (FIG. 1A): reduced
  post oral glucose challenge glucose area under the curve compared to placebo (FIG. 1A): reduced
[2]; after one month of salsalate, baseline 5.0±0.2, p<0.03
  fasting plasma glucose level after treatment: 4.6 ± 0.1 mmol/L
[2]; after one month of salsalate, baseline 12.4±0.4%, p<0.003
  glycated albumin after treatment: 10.3±0.3%
[2]; oral salsalate 4 g daily, one month, 75 g oral glucose, placebo increased by 6±3%, p=0.003
  reduction in glucose area under the curve during oral glucose tolerance testing: 14±5%
[2]; oral salsalate 4 g daily, one month, mean±SE, placebo increase of 5±2%, p<0.002
  reduction in fasting glucose, change from baseline: 8±4%
[2]; oral salsalate 4 g daily, one month, placebo 0.6±0.9%, p<0.002
  reduction in glycated albumin, change from baseline: 17±4%
[2]; within group, one month of salsalate, repeated measure analysis p<0.01
  glycemia response to glucose load: improvements in glycemia; also recorded: improved
[3]; actively treated participants after dose reduction
  reduced dose tolerated without symptoms (individual participants): 3.5 grams per day and 3.0 grams per day
[3]; actively treated, resolved spontaneously
  participants with transient mild transaminitis at the final visit: two
[3]; during the trial
  changes in anion gap: no noted changes
  changes in laboratory analysis of electrolytes: no noted changes
  changes in laboratory analysis of renal function: no noted changes
[3]; final visit, resolved spontaneously
  ALT/AST elevation in individual actively treated participants: similarly mild elevation in both ALT and AST; also recorded: less than twice the upper range of normal
[3]; initiated on 4.0 grams/day orally in two equal doses, on study medication
  participants requiring dose reduction due to complaints of tinnitus, headache or dizziness: Two
[3]; one month, 4 g daily
  symptomatic hypoglycemia: No symptomatic hypoglycemia
[3]; [7]
  change in mean alanine aminotransferase (ALT): no statistically significant change
  change in mean aspartate aminotransferase (AST): no statistically significant change
[3]; participants with rash on active therapy
  respiratory distress: No respiratory distress
[3]; received active therapy
  participants withdrawn due to rash: three
[4]
  inhibition of cyclooxygenase enzymes compared to aspirin: much weaker inhibitor
[5]
  adiponectin compared to placebo (FIG. 3A): increased significantly
[5]; after one month of salsalate, baseline 0.46±0.08, p=0.05
  fasting non-esterified fatty acids (FFA) levels after treatment: 0.25±0.05 mEq/L
[5]; after one month of salsalate, baseline 10.6±1.7, p=0.01
  adiponectin after treatment: 16.2 ± 2.7 mg/L
[5]; after one month of salsalate, baseline 48.2±10.5, p=0.05
  CRT concentrations after treatment: 30.2 ± 7.4 nmol/L
[5]; [8]
  II-6: did not change significantly
  soluble VCAM-1: did not change significantly
[5]; one month of salsalate, placebo decreased 1±5%, p=0.003
  adiponectin increase, change from baseline: 56±17%
[5]; p<0.05
  C-reactive protein (CRP) following treatment (FIG. 3B): lower
  Free Fatty Acids (FFA) following treatment (FIG. 3B): lower
[6]
  inhibition of IKKβ/NF-κB compared to aspirin: equipotent inhibitor
